Laboratory results reported in US12156922B2, “Copper-containing complex and uses thereof” (Bar-Ilan University, priority 2017, dated 2024).
Several values for one entry are separate records, joined by “and”; a condition that tells them apart may be missing. Equal values may be shown once. No end group written: not given here. *: point of attachment. MTSSL = S-(1-oxyl-2,2,5,5-tetramethyl-2,5-dihydro-1H-pyrrol-3-yl)methyl methanesulfonothioate spin label conjugate, CC1(C)C=C(CS*)C(C)(C)N1[O]

Legend:
[1] = UV-visible titration of ATSM-Cu(II) complex with Cu(II) chelators and peptides (311 nm / 465 nm); assay type: physicochemical; conditions: for molar equivalents sufficient/needed to remove copper from the ATSM-Cu(II) complex: 30% DMSO in 0.1 M phosphate buffer (pH 7.4)
Method: (§1) The stability of the ATSM-Cu(II) complex was tested by using UV-visible spectrophotometry. […] In order to confirm the dissociation of ATSM-Cu(II) complex or the formation of copper complex with ligands or copper chelation by ligands, the effect of ligands on ATSM-Cu(II) was also tested using electron paramagnetic resonance (EPR) spectroscopy.
Stock solutions of CuCl2 (10 mM), 1,10-phenanthroline (10 mM), IDA (10 mM), and L-histidine (10 mM), NTA (5 mM) and Pep1 (5 mM) were prepared in ultrapure water (Milli-Q®). Stock solutions (1 mM) of HAGAH, HGGH and HTGMK peptides were prepared by dissolution in 0.1 M phosphate buffer (pH 7.4).
In order to facilitate the solubility of ATSM-Cu(II) complex, all the measurements were carried out in 30% DMSO in 0.1 M phosphate buffer (pH 7.4), at physiological conditions.

[2] = EPR of ATSM-Cu(II) complex after addition of ligands; assay type: physicochemical; conditions: 0.1 mM ATSM-Cu(II), 4 molar equivalents of ligand; 30% DMSO, 0.1 M phosphate buffer (pH 7.4)
Method: as §1
The stability of ASTM-Cu(II) complex was further studied by EPR spectroscopy. 0.1 mM of ATSM-Cu(II) complex was prepared in 30% DMSO and 0.1 M phosphate buffer (pH 7.4).

[3] = Low temperature CW-EPR of Cu(II) binding to Ctr1 N-terminal peptides in KPi buffer; conditions: for percentage of Cu(II) bound to peptide (species other than 4O coordination): 130 K
Method: Continuous wave electron […] (CW-EPR) spectra were recorded using an Elexsys™ E500 spectrometer (Bruker) operating at 9.0-9.5 GHz, equipped with a super-high-sensitivity CW resonator. The spectra were recorded at room temperature (RT; 295±2 K) or at low temperature (130±5 K) at a microwave power of 20.0 mW, modulation amplitude of 1.0 G, time constant of 60 or 80 milliseconds, and receiver gain of 60.0 dB. The samples were measured in 0.8 mm or 1.0 mm capillary quartz tubes (VitroCom) at RT. Solutions that were measured at low temperature were mixed with 20% glycerol, and measured in a 3.0 mm or 4.0 mm Wilmad® quartz tube.
Simulation of CW-EPR spectra was performed using MATLAB, with the EasySpin™ toolbox, according to procedures described by Stoll & Schweiger [J Magn Reson 2006, 178:42-55]. In fitting a spectrum to a simulation, emphasis is placed on small peaks of in the region of under 3000G.
The abovementioned peptides Pep1-Pep5 were investigated by CW-EPR measurements at low temperature (130 K), in the presence of different concentrations of Cu(II). The data were subsequently incorporated into simulations using the EasySpin™ tool box, and the first coordination sphere of Cu(II) was determined for each peptide, according to procedures described in Peisach & Blumberg [Arch Biochem Biophys 1974, 165:691-708]. The experimental data and comparisons with simulated data (including parameters derived from the simulations) for peptides Pep1-Pep5, at a variety of peptide:Cu(II) molar ratios, are presented in FIGS. 7-11. FIG. 12 presents the experimental data and comparisons with simulated data for peptides Pep1-Pep5 at a peptide:Cu(II) molar ratio of 1:1.
The simulation for each peptide took into account two Cu(II) species. The first species corresponds to free Cu(II) ions in water, where Cu(II) is coordinated to four oxygen atoms (4O coordination), with g∥=2.39±0.005, A∥=154±2.0 G. The second species corresponds to Cu(II) that is bound to the peptide with coordination of 3N1O or 2N2O.

[4] = UV-VIS titration of peptides with Cu(I), absorption at 265 nm; assay type: binding; conditions: for absorption at 265 nm upon addition of Cu(I) (Cu(I) binding): 3-20 molar equivalents of Cu(I)
Method: UV-Visible-IR absorption spectra were obtained using a Cary® Bio 100 spectrophotometer, or using a Chirascan™ spectrometer (Applied Photophysics), at room temperature with a 1 mm optical path-length cell. Acetone was used as a reference. Typically, peptides were measured at a concentration of 0.3 mg/ml. Difference absorption spectra were obtained for peptides titrated with Cu(I) from 200 to 600 nm with a step size and a bandwidth of 0.5 nm.
Cu(I) was added to peptide solutions in the form of tetrakis(acetonitrile)copper(I) hexafluorophosphate under nitrogen gas in order to preserve anaerobic conditions. No Cu(II) signal was observed by EPR, thereby confirming the purity of the Cu(I).
In order to gain further insight into Cu(I) coordination, UV-VIS measurements were performed on the various peptides (as described n the Materials and Methods section hereinabove).

[5] = Reduction of Cu(II) to Cu(I) by ascorbate in the presence of peptide, followed by room temperature EPR intensity; conditions: 2 mM ascorbate, peptide:ascorbate:Cu(II) 1:2:2; for Cu(II) reduced: within 4000 seconds, room temperature
Method: For measuring Cu(II) reduction by EPR spectroscopy, 20 μl of aqueous CuCl2 solution (2 mM) was added to 20 μl of a solution of a tested peptide (1 mM). At time zero, 20 μl of ascorbic acid solution (2 mM) was added, and the solution was mixed under anaerobic conditions. Cu(II) EPR signal intensity (at the maximum EPR signal intensity (g⊥ position)) was measured as a function of time.
The effects of the mutations of the Pep2-Pep5 peptides on the reduction of Cu(II) to Cu(I) was then investigated, by evaluating the room temperature (RT) change in EPR intensity over time, as Cu(I) is EPR-silent. Reduction of Cu(II) was effected in the presence of 2 mM ascorbate (a peptide:ascorbate:Cu(II) molar ratio of 1:2:2). For comparison, the reduction of free Cu(II) in buffer was also measured.

[6] = peptide:Cu(II) molar ratio 1:0.6
[7] = peptide:Cu(II) molar ratio 1:0.8
[8] = peptide:Cu(II) molar ratio 1:1.4
[9] = peptide:Cu(II) molar ratio 1:0.4

Molecule: c1cnc2c(c1)ccc1cccnc12 [1,10-phenanthroline]
- molar equivalents sufficient/needed to remove copper from the ATSM-Cu(II) complex [1]: two molar equivalents
- effect on electron paramagnetic spectrum of ATSM-Cu(II) complex [2]: induced significant changes

Molecule: CN=C([S-])N/N=C(C)/C(C)=N/NC([S-])=NC.[Cu+2] [ATSM-Cu(II), Cu(II)-diacetyl-bis(N4-methylthiosemicarbazone)]
- stability of ATSM-Cu(II) complex in the presence of Cu(II) ligands ([1]; overall conclusion from UV-visible and EPR): may be unstable in a cellular environment

Molecule: O=C(O)CNCC(=O)O [IDA, Imino-diacetic acid]
- molar equivalents sufficient/needed to remove copper from the ATSM-Cu(II) complex [1]: at least four molar equivalents
- effect on electron paramagnetic spectrum of ATSM-Cu(II) complex [2]: induced significant changes

Molecule: N[C@@H](Cc1c[nH]cn1)C(=O)O [L-His, L-histidine]
- molar equivalents sufficient/needed to remove copper from the ATSM-Cu(II) complex [1]: at least four molar equivalents
- effect on electron paramagnetic spectrum of ATSM-Cu(II) complex [2]: induced significant changes

Molecule: O=C(O)CN(CC(=O)O)CC(=O)O [NTA, nitrilotriacetic acid]
- molar equivalents sufficient/needed to remove copper from the ATSM-Cu(II) complex [1]: at least four molar equivalents
- effect on electron paramagnetic spectrum of ATSM-Cu(II) complex [2]: induced significant changes

Molecule: HTGMK
- molar equivalents sufficient/needed to remove copper from the ATSM-Cu(II) complex [1]: one molar equivalent

Molecule: MDASHHMGMSYMDS (Pep3 peptide amino acid sequence)
- percentage of Cu(II) bound to peptide (species other than 4O coordination) [3, 6]: 70%
- percentage of Cu(II) bound to peptide (species other than 4O coordination) [3, 7]: 70%
- percentage of Cu(II) bound to peptide (species other than 4O coordination) [3, 8]: 63%
- percentage of Cu(II) bound to peptide (species other than 4O coordination) ([3]; peptide:Cu(II) molar ratio 1:2): 55%
- percentage of Cu(II) bound to peptide (species other than 4O coordination) ([3]; peptide:Cu(II) molar ratio 1:3): 55%
- Cu(I):peptide molar ratio at which binding occurred ([4]; titration with Cu(I)): exceeding 5.0
- Cu(II) reduced [5]: about 5%

Molecule: MDHSAHMGMSYMDS (Pep4 peptide amino acid sequence)
- percentage of Cu(II) bound to peptide (species other than 4O coordination) [3, 9]: 70%
- percentage of Cu(II) bound to peptide (species other than 4O coordination) [3, 6]: 80%
- percentage of Cu(II) bound to peptide (species other than 4O coordination) [3, 7]: 85%
- percentage of Cu(II) bound to peptide (species other than 4O coordination) ([3]; peptide:Cu(II) molar ratio 1:1): 90%
- percentage of Cu(II) bound to peptide (species other than 4O coordination) [3, 8]: 92%
- percentage of Cu(II) bound to peptide (species other than 4O coordination) ([3]; peptide:Cu(II) molar ratio 1:2): 94%
- percentage of Cu(II) bound to peptide (species other than 4O coordination) ([3]; peptide:Cu(II) molar ratio 1:3): 97% and 100%
- reduction of Cu(II) compared with free Cu(II) ions [5]: more rapid than reduction of free Cu(II) ions
- reduction of Cu(II) compared with wild-type peptide [5]: more rapid than in the presence of Pep1

Molecule: MDHSHAMGMSYMDS (Pep5 peptide amino acid sequence)
- percentage of Cu(II) bound to peptide (species other than 4O coordination) [3, 9]: 75%
- percentage of Cu(II) bound to peptide (species other than 4O coordination) [3, 6]: 75%
- percentage of Cu(II) bound to peptide (species other than 4O coordination) [3, 7]: 75%
- percentage of Cu(II) bound to peptide (species other than 4O coordination) [3, 8]: 40%
- percentage of Cu(II) bound to peptide (species other than 4O coordination) ([3]; peptide:Cu(II) molar ratio 1:2): 40%
- percentage of Cu(II) bound to peptide (species other than 4O coordination) ([3]; peptide:Cu(II) molar ratio 1:3): 30%
- reduction of Cu(II) compared with wild-type peptide [5]: more rapid than in the presence of Pep1

Molecule: MDHSHHMAMSYMDS (Pep2 peptide amino acid sequence)
- percentage of Cu(II) bound to peptide (species other than 4O coordination) [3, 9]: 60%
- percentage of Cu(II) bound to peptide (species other than 4O coordination) [3, 6]: 80%
- percentage of Cu(II) bound to peptide (species other than 4O coordination) [3, 7]: 85% and 80%
- percentage of Cu(II) bound to peptide (species other than 4O coordination) ([3]; peptide:Cu(II) molar ratio 1:1): 70%
- percentage of Cu(II) bound to peptide (species other than 4O coordination) [3, 8]: 60%
- percentage of Cu(II) bound to peptide (species other than 4O coordination) ([3]; peptide:Cu(II) molar ratio 1:2): 62%
- percentage of Cu(II) bound to peptide (species other than 4O coordination) ([3]; peptide:Cu(II) molar ratio 1:3): 58%
- Cu(II) reduced [5]: about 5%

Molecule: MDHSHHMGMSYMDS (Pep1 peptide amino acid sequence)
- Cu(II) bound to peptide ([3]; low Cu(II) concentrations): substantially all Cu(II) is bound
- percentage of Cu(II) bound to peptide (species other than 4O coordination) ([3]; peptide:Cu(II) molar ratio 1:1): 80%
- percentage of Cu(II) bound to peptide (species other than 4O coordination) [3, 8]: 70%
- percentage of Cu(II) bound to peptide (species other than 4O coordination) ([3]; peptide:Cu(II) molar ratio 1:2): 70%
- percentage of Cu(II) bound to peptide (species other than 4O coordination) ([3]; peptide:Cu(II) molar ratio 1:3): 70%
- Cu(II) reduced [5]: about 5%

Molecule: MTSSL-CMDHSHHAGMSYMDSC-MTSSL (C(MTSSL)MDHSHHAGMSYMDSC(MTSSL)-NH2; N-terminus assumed; SMILES CSCC[C@H](NC(=O)CNC(=O)[C@H](C)NC(=O)[C@H](Cc1c[nH]cn1)NC(=O)[C@H](Cc1c[nH]cn1)NC(=O)[C@H](CO)NC(=O)[C@H](Cc1c[nH]cn1)NC(=O)[C@H](CC(=O)O)NC(=O)[C@H](CCSC)NC(=O)[C@@H](N)CSSCC1=CC(C)(C)N([O])C1(C)C)C(=O)N[C@@H](CO)C(=O)N[C@@H](Cc1ccc(O)cc1)C(=O)N[C@@H](CCSC)C(=O)N[C@@H](CC(=O)O)C(=O)N[C@@H](CO)C(=O)N[C@@H](CSSCC1=CC(C)(C)N([O])C1(C)C)C(N)=O) [Pep8]
- absorption at 265 nm upon addition of Cu(I) (Cu(I) binding) [4]: did not change upon addition of Cu(I)

Molecule: MTSSL-CMDHSHHMGASYMDSC-MTSSL (C(MTSSL)MDHSHHMGASYMDSC(MTSSL)-NH2; N-terminus assumed; SMILES CSCC[C@H](NC(=O)[C@H](Cc1c[nH]cn1)NC(=O)[C@H](Cc1c[nH]cn1)NC(=O)[C@H](CO)NC(=O)[C@H](Cc1c[nH]cn1)NC(=O)[C@H](CC(=O)O)NC(=O)[C@H](CCSC)NC(=O)[C@@H](N)CSSCC1=CC(C)(C)N([O])C1(C)C)C(=O)NCC(=O)N[C@@H](C)C(=O)N[C@@H](CO)C(=O)N[C@@H](Cc1ccc(O)cc1)C(=O)N[C@@H](CCSC)C(=O)N[C@@H](CC(=O)O)C(=O)N[C@@H](CO)C(=O)N[C@@H](CSSCC1=CC(C)(C)N([O])C1(C)C)C(N)=O) [Pep9]
- absorption at 265 nm upon addition of Cu(I) (Cu(I) binding) [4]: did not change upon addition of Cu(I)

Molecule: MTSSL-CMDHSHHMGMSYADSC-MTSSL (C(MTSSL)MDHSHHMGMSYADSC(MTSSL)-NH2; N-terminus assumed; SMILES CSCC[C@H](NC(=O)CNC(=O)[C@H](CCSC)NC(=O)[C@H](Cc1c[nH]cn1)NC(=O)[C@H](Cc1c[nH]cn1)NC(=O)[C@H](CO)NC(=O)[C@H](Cc1c[nH]cn1)NC(=O)[C@H](CC(=O)O)NC(=O)[C@H](CCSC)NC(=O)[C@@H](N)CSSCC1=CC(C)(C)N([O])C1(C)C)C(=O)N[C@@H](CO)C(=O)N[C@@H](Cc1ccc(O)cc1)C(=O)N[C@@H](C)C(=O)N[C@@H](CC(=O)O)C(=O)N[C@@H](CO)C(=O)N[C@@H](CSSCC1=CC(C)(C)N([O])C1(C)C)C(N)=O) [Pep10]
- absorption at 265 nm upon addition of Cu(I) (Cu(I) binding) [4]: did not change upon addition of Cu(I)
